Assay results reported in US10266526B2, “Substituted 1,2,3-triazoles as SMYD inhibitors for treating cancer” (EPIZYME, INC., priority 2014, dated 2019).

biological target: SMYD2 (Homo sapiens (Human), UniProt Q9NRG4); test: SMYD2 biochemical assay (SMYD2 enzyme assay on peptide substrate, 3H-SAM Flashplate); conditions: read-out: SMYD2 Biochem IC50; IC50 values are an average of n = 1 to n = 50
Sequence (Q9NRG4 whole entry): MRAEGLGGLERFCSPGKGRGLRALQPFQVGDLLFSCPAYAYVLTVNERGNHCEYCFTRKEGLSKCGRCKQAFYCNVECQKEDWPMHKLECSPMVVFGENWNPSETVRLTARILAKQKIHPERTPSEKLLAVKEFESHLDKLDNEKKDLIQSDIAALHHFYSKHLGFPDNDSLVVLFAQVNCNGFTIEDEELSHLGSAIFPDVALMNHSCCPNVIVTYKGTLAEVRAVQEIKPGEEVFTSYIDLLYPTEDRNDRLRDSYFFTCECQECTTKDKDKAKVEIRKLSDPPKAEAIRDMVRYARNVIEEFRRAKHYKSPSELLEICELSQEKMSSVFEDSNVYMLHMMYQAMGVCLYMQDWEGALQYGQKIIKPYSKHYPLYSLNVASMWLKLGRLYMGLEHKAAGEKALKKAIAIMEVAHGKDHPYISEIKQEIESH

SMILES | IC50 [µM]
O=C(NC1CN(Cc2cncn2Cc2ccccc2)C1)c1cn(C2CC2)nn1 [compound 809, N-{1-[(1-benzyl-1H-imidazol-5-yl)methyl]azetidin-3-yl}-1-cyclopropyl-1H-1,2,3-triazole-4-carboxamide] | > 50
Cn1cc(CN2CC(NC(=O)c3cn(C4CC4)nn3)C2)c(Cl)n1 [compound 811, N-{1-[(3-chloro-1-methyl-1H-pyrazol-4-yl)methyl]azetidin-3-yl}-1-cyclopropyl-1H-1,2,3-triazole-4-carboxamide] | 1.22
O=C(NC1CN(C(CO)c2ccc(F)cc2)C1)c1cn(C2CC2)nn1 (stereo not shown) [compound 813, 1-cyclopropyl-N-{1-[1-(4-fluorophenyl)-2-hydroxyethyl]azetidin-3-yl}-1H-1,2,3-triazole-4-carboxamide] | 15.2
CCN1CC(NC(=O)c2cc(C3CC3)cnn2)C1 [compound 814, 5-cyclopropyl-N-(1-ethylazetidin-3-yl)pyridazine-3-carboxamide] | 0.598
CC(C)N1CCCC(NC(=O)c2cc(C3CC3)cnn2)C1 (stereo not shown) [compound 815, 5-cyclopropyl-N-[1-(propan-2-yl)piperidin-3-yl]pyridazine-3-carboxamide] | 18.7
O=C(NC1CN(C(c2ccc(OCc3ccccc3)cc2)C(F)(F)F)C1)c1cn(C2CC2)nn1 (stereo not shown) [compound 816, N-(1-{1-[4-(benzyloxy)phenyl]-2,2,2-trifluoroethyl}azetidin-3-yl)-1-cyclopropyl-1H-1,2,3-triazole-4-carboxamide] | > 50
CC(c1ccc(OCc2ccccc2)cc1Cl)N1CC(NC(=O)c2cn(C3CC3)nn2)C1 (stereo not shown) [compound 817, N-(1-{1-[4-(benzyloxy)-2-chlorophenyl]ethyl}azetidin-3-yl)-1-cyclopropyl-1H-1,2,3-triazole-4-carboxamide] | 0.102
COCCCOc1ccc(CN2CC(NC(=O)c3cn(C4CC4)nn3)C2)cc1 [compound 818, 1-cyclopropyl-N-(1-{[4-(3-methoxypropoxy)phenyl]methyl}azetidin-3-yl)-1H-1,2,3-triazole-4-carboxamide] | 3
CNC1CCCC(C(=O)Nc2cc(O)c3c(c2)OCC(=O)N3)C1 (stereo not shown) [compound 820, N-(5-hydroxy-3-oxo-3,4-dihydro-2H-1,4-benzoxazin-7-yl)-3-(methylamino)cyclohexane-1-carboxamide] | > 50
COc1ccc(C(C)N2CC(NC(=O)c3cn(C4CC4)nn3)C2)cc1 (stereo not shown) [compound 821, 1-cyclopropyl-N-{1-[1-(4-methoxyphenyl)ethyl]azetidin-3-yl}-1H-1,2,3-triazole-4-carboxamide] | 0.785
CC(O)COc1ccc(CN2CC(NC(=O)c3cn(C4CC4)nn3)C2)cc1 (stereo not shown) [compound 822, 1-cyclopropyl-N-(1-{[4-(2-hydroxypropoxy)phenyl]methyl}azetidin-3-yl)-1H-1,2,3-triazole-4-carboxamide] | 1.97
O=C(NC1CN(Cc2ccc(OCCCO)cc2)C1)c1cn(C2CC2)nn1 [compound 823, 1-cyclopropyl-N-(1-{[4-(3-hydroxypropoxy)phenyl]methyl}azetidin-3-yl)-1H-1,2,3-triazole-4-carboxamide] | 3.22
O=C(NC1CN(Cc2ccc(O)cc2)C1)c1cn(C2CC2)nn1 [compound 824, 1-cyclopropyl-N-{1-[(4-hydroxyphenyl)methyl]azetidin-3-yl}-1H-1,2,3-triazole-4-carboxamide] | 0.882
CN1CC(NC(=O)c2cc(C3CC3)cnn2)C1 [compound 825, 5-cyclopropyl-N-(1-methylazetidin-3-yl)pyridazine-3-carboxamide] | 0.391
COc1ccc(CN2CC(NC(=O)c3cn(C4CC4)nn3)C2)cc1 [compound 826, 1-cyclopropyl-N-{1-[(4-methoxyphenyl)methyl]azetidin-3-yl}-1H-1,2,3-triazole-4-carboxamide] | 1.84
O=C(NC1CN(Cc2ccc(OCCO)cc2)C1)c1cn(C2CC2)nn1 [compound 827, 1-cyclopropyl-N-(1-{[4-(2-hydroxyethoxy)phenyl]methyl}azetidin-3-yl)-1H-1,2,3-triazole-4-carboxamide] | 1.38
